Assay results: patent publication US5668137A, “N-heterocyclic sulfonamides having endothelin receptor activity” (Zeneca Ltd., priority 1995, dated 1997)

System: Human ETA or ETB receptors
Assay: Test A: inhibition of [125I]-Endothelin-1 binding to MEL cell membranes expressing recombinant receptor
Conditions: inhibition of 30 pM [125I]-Endothelin-1 binding, 180 minutes at 30° C., receptor sub-type (ETA or ETB) not stated
From the text: The endothelin receptor antagonist activity of compounds of formula I may be assessed in vitro by their ability to inhibit binding of [^125 ]-Endothelin-1 to its receptors. Human ETA or ETB receptors (sub-types of the endothelin receptor) were expressed in Mouse Erythroleukemic Cells (MEL cells) by using standard molecular techniques (for example, as described by Sambrook J., Fritsch E. F. & Maniatis T. (1989) Molecular Cloning: A Laboratory Manual, 2nd Edition, Cold Spring Harbor Press, USA). cDNA sequences encoding the human ETA, and ETB receptor (Hosoda K. et al (1991), FEBS Lett., 287, 23-26 and Sakamoto A. et al, (1991), Biochem. Biophys Res. Comm., 178, 656-663) are subcloned into pBluescript vector followed by insertion into the MEL cell expression vector pEV as described by Needham et al (1992), Nuc. Acids Res., 20, 997-1003. […]
[^125 I]-Endothelin-1 binding to MEL cell membranes was measured in incubation buffer containing 50 mM Tris HCl, 1 mM CaCl2, 0.05% polyoxyethylenesorbitan monolaurate, 0.1% Bovine Serum Albumin (BSA), 0.02% sodium azide pH 7.4 at 30° C. after 180 minutes incubation. […] Nonspecific binding was measured in the presence of 100 nM unlabelled Endothelin-1. […] The filter discs were punched out and counted in a gamma counter. Compounds are tested in triplicate over a range of concentrations and IC50 (or pIC50) values calculated.

- pIC50 in Test A: 8.3
Compound: COc1nc(C)cnc1NS(=O)(=O)c1ccccc1-c1ccc(CC(C)C(=O)O)cc1 (stereo not shown) [Example 1, 4'-(2-carboxypropyl)-N-(3-methoxy-5-methylpyrazin-2-yl)-2-biphenylsulphonamide]
